We go through one molecule from US7196070B2, “Prophylactic and therapeutic treatment of the ductal epithelium of a mammary gland for cancer” (priority 1995, dated 2007).

For the assay, the system named is NMU-induced mammary tumors. The assay is described as follows: Prophylaxis of NMU-induced mammary tumors after intraductal injection. Format: in vivo, Sprague Dawley rats. To be noted: rat mammary glands, NMU 50 mg/kg i.v. after treatment, monitored 8 months. The method, then:
The mammary glands (6 on each side) of six virgin 50 day old Sprague Dawley rats were injected with AdHS-tk on the left side and trypan blue on the right side or left untreated. One rat remained completely untreated with the virus or GCV and served as a positive control for NMU-induced tumorigenesis. On the day of surgery, rats were given an intramuscular injection of 5 μg estradiol valerate and were anesthetized with an isofluorane/O2 mixture. The nipples were cannulated with a 33 gauge needle. Twenty μl of AdHS-tk diluted in trypan blue carrier (1 mM MgCl2, 20 μg/ml polybrene in 10% glycerol, 0.4% trypan blue in saline) at a concentration of 5×10^7 particles/μl were injected into the duct. Carrier control mammary glands received 20 μl of trypan blue carrier alone. An animal was considered treated when at least three glands were successfully injected with trypan blue and another three glands were successfully injected with AdHS-tk. The remaining glands were left untreated. Twelve hrs later, the rats were injected with 125 mg/kg body weight GCV twice daily for three days. […] Five to seven days after GCV treatment, the rats were given an intravenous injection of NMU dissolved in 0.05% acetic acid (Ash Stevens, CO; 50 mg NMU/kg body weight) and were subsequently monitored for general health and the appearance of tumors at weekly intervals for 8 months.

In the case of `Nc1nc(O)c2ncn(COC(CO)CO)c2n1` [Ganciclovir, ganciclovir], the “% of Glands with Tumor” value worked out at 25.0% and the “No. of Tumors” value is 5.
